Measurements reported in US10065990B2, “Cyclic peptide compound, and preparation method, pharmaceutical composition and use thereof” (HANGZHOU GUANYU BIO-MEDICAL CO., LTD, priority 2013, dated 2018).
Read-outs that look alike come from different tables or passages of the source.

Columns and labels:
HDAC7 = target: T1, HDAC7 (Homo sapiens, UniProt Q8WUI4); assay: HDAC biochemical activity measurement (fluorescent substrate deacetylation);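 note: fluorogenic deacetylation assay using acetyl-lysine substrate at 20 µM, enzyme and compound incubated 30 min at 37 °C, then developer added, fluorescence read at 360/460 nm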; conditions: HDAC7; 37° C. 30 minutes
T1 sequence (Q8WUI4 1-952): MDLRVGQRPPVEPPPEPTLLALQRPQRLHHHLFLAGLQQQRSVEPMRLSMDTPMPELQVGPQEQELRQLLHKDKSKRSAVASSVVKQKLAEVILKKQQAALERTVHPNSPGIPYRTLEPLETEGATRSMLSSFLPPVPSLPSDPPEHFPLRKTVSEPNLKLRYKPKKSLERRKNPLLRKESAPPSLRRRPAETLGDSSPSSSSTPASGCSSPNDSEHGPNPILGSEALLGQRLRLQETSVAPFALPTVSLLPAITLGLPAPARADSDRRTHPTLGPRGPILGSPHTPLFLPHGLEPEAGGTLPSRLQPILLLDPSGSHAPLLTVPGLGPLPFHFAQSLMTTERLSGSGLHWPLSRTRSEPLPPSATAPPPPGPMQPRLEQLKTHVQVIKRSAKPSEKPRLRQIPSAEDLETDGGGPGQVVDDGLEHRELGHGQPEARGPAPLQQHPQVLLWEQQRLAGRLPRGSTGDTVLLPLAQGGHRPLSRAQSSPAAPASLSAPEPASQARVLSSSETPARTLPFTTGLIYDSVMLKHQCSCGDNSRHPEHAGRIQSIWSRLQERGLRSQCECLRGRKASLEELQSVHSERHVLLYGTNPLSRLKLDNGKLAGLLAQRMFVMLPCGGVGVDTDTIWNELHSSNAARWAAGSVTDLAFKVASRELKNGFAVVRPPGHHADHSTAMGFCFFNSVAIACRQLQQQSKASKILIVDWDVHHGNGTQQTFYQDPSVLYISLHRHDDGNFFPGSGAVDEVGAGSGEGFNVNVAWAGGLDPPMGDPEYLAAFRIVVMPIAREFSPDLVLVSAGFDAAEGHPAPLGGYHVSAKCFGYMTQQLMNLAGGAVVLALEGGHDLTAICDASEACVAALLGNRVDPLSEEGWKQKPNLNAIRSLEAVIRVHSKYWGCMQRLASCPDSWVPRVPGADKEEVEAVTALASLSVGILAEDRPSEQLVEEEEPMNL

[1] = tested on: K562 (human leukemia cells); assay: MTT cancer cell growth inhibition; type: cell-based; conditions: MTT, 72 hours incubation, K562 cells, read-out: GI50 K562
From the text: (§1) MTT assay principle is yellow MTT can penetrate membrane into the cell, succinic dehydrogenase of the mitochondria in living cells can make exogenous MTT reduction of insoluble in water of blue-violet acicular formazan for crystallization and deposition in the cell, crystallization can be dissolved dimethyl sulfoxide (DMSO) solution, detected its absorbance at 490 nm/570 nm wavelength by enzyme-linked immunosorbent assay, which can reflect the number of cells.
(§2) Using DMEM+10% FBS culture medium or using 1640+10% FBS culture, respectively.
(§3) a) Cells were seeded in 96-well plates with the inoculation of 1500/well, 190 μl/hole, 37° C., 5% of CO2 incubator overnight;
(§4) b) The next day each well was added 10 μl of different drugs. The final concentration of drug was 10^−5˜10^−10M, three parallel holes; 37° C., 5% CO2 culture incubator for 72 hours incubation;
(§5) c) Per well was added 20 μl 5 mg/ml of MTT, 37° C., 5% CO2 culture incubator for 4 hours incubation;
(§6) d) The supernatant was discarded. Each well was added 100 μl of DMSO and oscillation;
(§7) e) 570 nm readings. Calculate cell viability. GI50 calculation based on the results.

[2] = tested on: KBM-5 (human chronic myelogenous leukemia); assay: MTT cancer cell growth inhibition; type: cell-based; conditions: MTT, 72 hours incubation, KBM-5 cells, read-out: GI50 KBM-5
From the text: as §1, §2, §3, §4, §5, §6, §7

[3] = tested on: H1975 (non-small cell lung adenocarcinoma); assay: MTT cancer cell growth inhibition; type: cell-based; conditions: MTT, 72 hours incubation, H1975 cells, read-out: GI50 H1975
From the text: as §1, §2, §3, §4, §5, §6, §7

[4] = tested on: PANC-1 (Pac-1, human pancreatic cancer cells); assay: MTT cancer cell growth inhibition; type: cell-based; conditions: MTT, 72 hours incubation, read-out: GI50 PAN
From the text: as §1, §2, §3, §4, §5, §6, §7

[5] = tested on: Bel-7402 (human hepatoma cells); assay: MTT cancer cell growth inhibition; type: cell-based; conditions: MTT, 72 hours incubation, Bel-7402 cells, read-out: GI50 Bel-7402
From the text: as §1, §2, §3, §4, §5, §6, §7

[6] = tested on: MDA-MB-231 (breast cancer cells); assay: MTT cancer cell growth inhibition; type: cell-based
From the text: as §1, §2, §3, §4, §5, §6, §7

[7] = tested on: HT1080 (human fibrosarcoma cells); assay: MTT cancer cell growth inhibition; type: cell-based; conditions: MTT, 72 hours incubation, read-out: GI50 HT1
From the text: as §1, §2, §3, §4, §5, §6, §7

[8] = tested on: MOLT-4 (human acute lymphoblastic leukemia cells); assay: MTT cancer cell growth inhibition; type: cell-based; conditions: MTT, 72 hours incubation, read-out: GI50 Mol
From the text: as §1, §2, §3, §4, §5, §6, §7

[9] = tested on: DU145 (human prostate cancer cells); assay: MTT cancer cell growth inhibition; type: cell-based; conditions: MTT, 72 hours incubation, read-out: GI50 Du1
From the text: as §1, §2, §3, §4, §5, §6, §7

[10] = tested on: MCF-7 (human breast cancer cells); assay: MTT cancer cell growth inhibition; type: cell-based; conditions: 72 hours incubation, read-out: GI50 MCF
From the text: as §1, §2, §3, §4, §5, §6, §7

[11] = tested on: lncap (prostate cancer cells); assay: MTT cancer cell growth inhibition; type: cell-based; conditions: MTT, 72 hours incubation, read-out: GI50 lnca
From the text: as §1, §2, §3, §4, §5, §6, §7

[12] = tested on: SGC-7901 (human gastric cancer cells); assay: MTT cancer cell growth inhibition; type: cell-based; conditions: MTT, 72 hours incubation, SGC-7901 cells, read-out: GI50 SGC-7901
From the text: as §1, §2, §3, §4, §5, §6, §7

[13] = tested on: A549 (human lung cancer cells); assay: MTT cancer cell growth inhibition; type: cell-based; conditions: MTT, 72 hours incubation, read-out: GI50 A54
From the text: as §1, §2, §3, §4, §5, §6, §7

[14] = tested on: BGC-823 (human gastric cancer cells); assay: MTT cancer cell growth inhibition; type: cell-based; conditions: MTT, 72 hours incubation, read-out: GI50 BG
From the text: as §1, §2, §3, §4, §5, §6, §7

[15] = tested on: Huh-7 (human hepatoma cells); assay: MTT cancer cell growth inhibition; type: cell-based; conditions: MTT, 72 hours incubation, Huh-7 cells, read-out: GI50 Huh-7
From the text: as §1, §2, §3, §4, §5, §6, §7

[16] = tested on: KBM5-T315I (human chronic myelogenous leukemia); assay: MTT cancer cell growth inhibition; type: cell-based; conditions: MTT, 72 hours incubation, KBM5-T315I cells, read-out: GI50 KBM5-T315I
From the text: as §1, §2, §3, §4, §5, §6, §7

[17] = tested on: HCC827 (human non-small cell lung cancer cells); assay: MTT cancer cell growth inhibition; type: cell-based; conditions: MTT, 72 hours incubation, HCC827 cells, read-out: GI50 HCC827
From the text: as §1, §2, §3, §4, §5, §6, §7

[18] = tested on: Hela (human cervical cancer cells); assay: MTT cancer cell growth inhibition; type: cell-based; conditions: MTT, 72 hours incubation, read-out: GI50 Hela
From the text: as §1, §2, §3, §4, §5, §6, §7

[19] = tested on: N-87 (human gastric cancer cells); assay: MTT cancer cell growth inhibition; type: cell-based; conditions: MTT, 72 hours incubation, N-87 cells, read-out: GI50 N-87
From the text: as §1, §2, §3, §4, §5, §6, §7

[20] = tested on: U937 (human leukemia cells); assay: MTT cancer cell growth inhibition; type: cell-based; conditions: MTT, 72 hours incubation, read-out: GI50 U93
From the text: as §1, §2, §3, §4, §5, §6, §7

[21] = Homo sapiens, PANC-1, 72 h, PANC-1 cells
[22] = Homo sapiens, MDA-MB-231, 72 h, read-out: GI50 MDA-MB-231, MTT, 72 hours incubation, MDA-MB-231 cells
[23] = Homo sapiens, HT-1080, 72 h, HT1080 cells
[24] = Homo sapiens, MOLT-4, 72 h, MOLT-4 cells
[25] = Homo sapiens, DU-145, 72 h, DU145 cells
[26] = Homo sapiens, MCF7, 72 h, MCF-7 cells
[27] = Homo sapiens, LNCaP, 72 h, lncap cells
[28] = Homo sapiens, A549, 72 h, A549 cells
[29] = Homo sapiens, BGC-823, 72 h, BGC-823 cells
[30] = Homo sapiens, HeLa, 72 h, Hela cells
[31] = Homo sapiens, U-937, 72 h, U937 cells

Structure (SMILES)	IC50 HDAC7 (HDAC7)	GI50 ([1]; Homo sapiens, K562, 72 h) [µM]	GI50 ([2]; Homo sapiens, KBM5, 72 h) [µM]	GI50 ([3]; Homo sapiens, NCI-H1975, 72 h) [µM]	GI50 [4, 21] [µM]	GI50 ([5]; Homo sapiens, Bel-7402, 72 h) [µM]	GI50 [6, 22] [µM]	GI50 [7, 23] [µM]	GI50 [8, 24] [µM]	GI50 [9, 25] [µM]	GI50 [10, 26] [µM]	GI50 [11, 27] [µM]	GI50 ([12]; Homo sapiens, SGC-7901, 72 h) [µM]	GI50 [13, 28] [µM]	GI50 [14, 29] [µM]	GI50 ([15]; Homo sapiens, Huh-7, 72 h) [µM]	GI50 ([16]; Homo sapiens, 72 h) [µM]	GI50 ([17]; Homo sapiens, HCC827, 72 h) [µM]	GI50 [18, 30] [µM]	GI50 ([19]; Homo sapiens, 72 h) [µM]	other results
C/C=C1\NC(=O)c2cc(SC)cc(n2)CNC(=O)C[C@@H](/C=C/CCSC(C)=O)OC(=O)[C@H](C)NC1=O [Compound 214]	no activity																				GI50 [1]: 0.071 µM; GI50 [2]: 0.019 µM; GI50 [3]: 0.063 µM; GI50 ([4]; PANC-1 cells): 0.04 µM; GI50 [5]: 0.071 µM; GI50 ([6]; read-out: GI50 MDA-MB-231, MTT, 72 hours incubation, MDA-MB-231 cells): 0.015 µM; GI50 ([7]; HT1080 cells): 0.04 µM; GI50 ([8]; MOLT-4 cells): 0.05 µM; GI50 ([9]; DU145 cells): 0.04 µM; GI50 ([10]; MCF-7 cells): 0.05 µM; GI50 ([11]; lncap cells): 0.11 µM; GI50 [12]: 0.068 µM; GI50 ([13]; A549 cells): 0.09 µM; GI50 ([14]; BGC-823 cells): 0.02 µM; GI50 [15]: 0.041 µM; GI50 [16]: 0.073 µM; GI50 [17]: 0.035 µM; GI50 ([18]; Hela cells): 0.06 µM; GI50 [19]: 0.095 µM; GI50 ([20]; U937 cells): 0.05 µM
C/C=C1\NC(=O)c2cc(SC)cc(n2)CNC(=O)C[C@@H](/C=C/CCS)OC(=O)[C@H](CC)NC1=O [Compound 230]	no activity	0.023	0.026	0.035	0.03	0.023	0.083	0.02	0.03	0.05	0.07	0.05	0.048	0.02	0.03	0.091	0.087	0.035	0.02	0.036	GI50 [20, 31]: 0.02 µM
C/C=C1\NC(=O)c2ccc(F)c(n2)CNC(=O)C[C@@H](/C=C/CCSC(C)=O)OC(=O)[C@@H](C)NC1=O [Compound 102]	no activity	0.028	0.067	0.035		0.011	0.026						0.031			0.073	0.071	0.058		0.046	GI50 ([4]; Homo sapiens, PANC-1, 72 h): 0.05 µM; GI50 ([7]; Homo sapiens, HT-1080, 72 h): 0.05 µM; GI50 ([8]; Homo sapiens, MOLT-4, 72 h): 0.03 µM; GI50 ([9]; Homo sapiens, DU-145, 72 h): 0.02 µM; GI50 ([10]; Homo sapiens, MCF7, 72 h): 0.03 µM; GI50 ([11]; Homo sapiens, LNCaP, 72 h): 0.03 µM; GI50 ([13]; Homo sapiens, A549, 72 h): 0.05 µM; GI50 ([14]; Homo sapiens, BGC-823, 72 h): 0.03 µM; GI50 ([18]; Homo sapiens, HeLa, 72 h): 0.03 µM; GI50 ([20]; Homo sapiens, U-937, 72 h): 0.04 µM
C/C=C1\NC(=O)c2nc(cc(SC)n2)CNC(=O)C[C@@H](/C=C/CCSC(C)=O)OC(=O)[C@H](C)NC1=O [Compound 218]	no activity	0.036	0.021	0.038	0.05	0.062	0.027	0.02	0.09	0.05	0.04	0.05	0.053	0.03	0.06	0.021	0.043	0.037	0.08	0.065	GI50 [20, 31]: 0.06 µM
